Source: patent US20040096494A1, “Composition” (priority 2003, published 2004)

Conditions: minipig, in vivo

| oral bioavailability, expressed as the systemic exposure to ketoprofen relative to intravenous ketoprofen [%] | oral bioavailability, expressed as the systemic exposure to diclofenac relative to intravenous diclofenac [%] | SMILES |
| --- | --- | --- |
| 82 | – | CC(C(=O)OCCCCCCO[N+](=O)[O-])c1cccc(C(=O)c2ccccc2)c1 (stereo not drawn) [Compound of formula Ic] |
| 80 | – | CC(C(=O)OCc1ccc(CO[N+](=O)[O-])cc1)c1cccc(C(=O)c2ccccc2)c1 (stereo not drawn) [Compound of formula If] |
| – | 85 | O=C(Cc1ccccc1Nc1c(Cl)cccc1Cl)OCCCCO[N+](=O)[O-] [Compound of formula Ig] |
